Measured values as given in article PMC9743426, “Expanding the Chemical Space of Drug-like Passerini Compounds: Can α-Acyloxy Carboxamides Be Considered Hard Drugs?” (ACS Medicinal Chemistry Letters, 2022).

What was measured:
[1] = Hydrolytic stability in human plasma; type: in vitro ADME; conditions: substrate 10 μM, 30 min, 37 °C
Experimental: As a final point, for some of the compounds characterized by the best hepatic stability, we also evaluated them in human plasma (Table 2) and under acidic and alkaline conditions (see the Supporting Information), the latter to ascertain the stability of α-acyloxy carboxamides in the gastrointestinal tract. […] Once again, the ortho,ortho′-disubstitution of the aromatic ring is the one that gives the best metabolic stability. […]
Hydrolytic stability in human plasma
The standard incubation mixture (100 μL final volume) was carried out by dissolving the tested substrate compounds (10 μM) in DMSO (5% final volume) in preincubated plasma at 37 °C. The mixture was shaken for 30 min at 37 °C. Control incubations were carried out without substrate. Each incubation was stopped by addition of 200 μL of ice-cold acetonitrile, vortexed, and centrifuged at 13000 rpm for 10 min. The supernatants were analyzed by LC-HRMS. […]

[2] = Hydrolytic stability in human liver microsomes (HLM); type: in vitro ADME; conditions: 30 min; for Residual substrate percentage, HLM: human liver microsomes 1.0 mg/mL protein, substrate 10 μM, 37 °C
Experimental: This was made in light of the fact that the overall metabolizing capability of murine hepatic enzymes, including carboxylesterases, is supposed to be higher compared to the human ones.[17]
(§1) Hydrolytic stability in MLM and HLM
(§2) The standard incubation mixture (200 µL final volume) was carried out in a 50 mM TRIS-HCl buffer (pH 7.4) containing 150 mM KCl, tween 80 as cosolvent (0.8 mg/mg protein), and the substrate (10 μM). After pre-equilibration of the mixture, an appropriate volume of MLM or HLM suspension was added to give a final protein concentration of 1.0 mg/mL. The mixture was shaken for 30 minutes at 37 °C. Control incubations were carried out without the presence or microsomes or in pure acetonitrile. Each incubation was stopped by the addition of 200 µL ice-cold acetonitrile, vortexed and centrifuged at 13000 rpm for 5 min. The supernatants were analyzed by LC-HRMS. […]

[3] = Hydrolytic (chemical) stability in Tris-HCl buffer pH 7.4; type: physicochemical; conditions: 50 mM Tris-HCl buffer pH 7.4, incubation 30 min, without microsomes
Experimental: (§3) For all 43 compounds, a first evaluation of their chemical and metabolic stabilities toward hydrolysis was performed by incubating them in buffer under physiological conditions (50 mM Tris-HCl, pH 7.4) and in mouse liver microsomes (Table 1). This model was chosen because, similar to the human liver, both of the carboxylesterase isoforms are present. […] A more interesting trend was instead possible to observe with benzoic acids.
as §1, §2

[4] = Hydrolytic stability in mouse liver microsomes (MLM); type: in vitro ADME; conditions: 30 min; for Residual substrate percentage, MLM: mouse liver microsomes 1.0 mg/mL protein, substrate 10 μM, 37 °C
Experimental: as §3, §1, §2

[5] = system: P. aeruginosa ATCC 9027; test: Antibacterial activity, agar well-diffusion method; type: cell-based, Pseudomonas aeruginosa; conditions: for Antibacterial activity (in words): P. aeruginosa ATCC 9027, 1 mg/mL; for Inhibition zone: P. aeruginosa ATCC 9027, 1 mg/mL in DMSO, 55 μL per 6 mm well, 24 h at 37 °C, average ± SD
Source text: Recently an article presented the synthesis of 1,3-phenylenebis(2-(cyclohexylamino)-2-oxoethane-1,1-diyl) dibenzoate (99) (Figure 6), obtained with a double Passerini reaction starting from 1,3-benzenedicarbaldehyde. […] According to our studies, compounds 99 is expected to suffer from metabolic instability, whereas the new analogue 100 designed by us (Figure 6), containing methyl groups at the two ortho positions in each benzoate group, should be metabolically stable. We then synthesized the two compounds and evaluated their antibacterial activities on P. aeruginosa and their hydrolytic stabilities. The in vitro antibacterial activities of 99 and 100 were evaluated against the P. aeruginosa ATCC 9027 strain. […] No inhibition halos were observed around the wells containing DMSO alone.
The in vitro antibacterial activity of the compounds was assayed against the Gram-negative P. aeruginosa
ATCC 9027 by the agar well-diffusion method. Compounds 99, 100, and gentamycin were dissolved in
DMSO (Scharlab, Barcelona, ES) and tested at the concentration of 1 mg/mL. For comparison, gentamycin
was used as a negative control of growth and DMSO as positive control of growth. The strain, obtained from
the American Type Culture Collection (ATCC, Manassas, VA, United States) and stored at −80 °C in Brain
Heart Infusion (Scharlab, Barcelona, ES) with 25% glycerol (Scharlab, Barcelona, ES), was cultured onto
Tryptic Soy Agar (Scharlab, Barcelona, ES) at 37°C for 16 h.
A bacterial suspension (ca. 1.5×10^8 Colony Forming Unit per ml) was prepared in isotonic saline solution
(NaCl 0,9%) and spread onto Muller-Hinton agar (Scharlab, Barcelona, ES) surfaces using a sterile swab.
Wells (6 mm diameter) were punched using a sterile punch cutter and filled with 55 μL of each sample. Plates
were left at room temperature for 1h to allow each sample to diffuse into the agar and then incubated at 37 °C
for 24 h. Finally, the inhibition zone diameters were measured.
The assay was carried out in triplicate and repeated twice. Results were expressed as average values ± standard

[6] = system: Pseudomonas aeruginosa; parameters: method as in doi:10.1155/2013/125959; conditions: mixture of two enantiomers and a meso form; cited from earlier work

Row | Compound | Residual substrate percentage, plasma [1] [%] | Residual substrate percentage, HLM [2] [%] | Hydrolytic stability in human liver microsomes (in words) [2] | Residual substrate percentage, buffer [3] [%] | Residual substrate percentage, MLM [4] [%] | Hydrolysis of the ester group in mouse liver microsomes (in words) [4] | Antibacterial activity (in words) [5] | Inhibition zone [5] [mm] | Antibacterial activity against Pseudomonas aeruginosa (in words) [6]
1 | Cc1cccc(C)c1C(OC(=O)c1ccccc1)C(=O)NC(C)(C)C (stereo not shown) [Compound 57] | 90 | 73 | stable | >99 | 3 | rapidly degraded | – | – | –
2 | CC(C)(C)NC(=O)C(OC(=O)c1ccccc1)c1ccccc1-c1ccccc1 (stereo not shown) [Compound 58] | 90 | >99 | stable | >99 | 2 | rapidly degraded | – | – | –
3 | Cc1cccc(C)c1C(=O)OC(C(=O)NC(C)(C)C)c1ccccc1 (stereo not shown) [Compound 78, 2-(tert-butylamino)-2-oxo-1-phenylethyl 2,6-dimethylbenzoate] | >99 | >99 | excellent stability | >99 | >99 | – | – | – | –
4 | Cc1cccc(Cl)c1C(=O)OCC(=O)NC(C)(C)C [Compound 80] | >99 | >99 | excellent stability | 98 | 97 | – | – | – | –
5 | Cc1ccc(Br)c(C)c1C(=O)OCC(=O)NC(C)(C)C [Compound 98] | >99 | >99 | excellent stability | >99 | >99 | extremely stable | – | – | –
6 | O=C(OC(C(=O)NC1CCCCC1)c1cccc(C(OC(=O)c2ccccc2)C(=O)NC2CCCCC2)c1)c1ccccc1 (stereo not shown) [Compound 99, 1,3-phenylenebis(2-(cyclohexylamino)-2-oxoethane-1,1-diyl) dibenzoate, reference compound] | 93 | 47 | hydrolytic stability increased | >99 | 5 | high instability | moderate antibacterial activities | 10.2 ± 1.2 | good antibacterial activity
7 | Cc1cccc(C)c1C(=O)OC(C(=O)NC1CCCCC1)c1cccc(C(OC(=O)c2c(C)cccc2C)C(=O)NC2CCCCC2)c1 (stereo not shown) [Compound 100] | 84 | >99 | completely stable | >99 | 95 | completely stable | moderate antibacterial activities | 10.4 ± 1.3 | –
8 | gentamycin | – | – | – | – | – | – | – | 22.3 ± 1.7 | –
